Legend:
[1] = tested on: H1975 lung adenocarcinoma cell line; test: MTT assay, growth inhibition of H1975 cell line; format: cell-based; details: 48 h and 72 h at 0.5 ng/μl and 10 ng/μl
Protocol: (§1) The inhibition ratio (IR) and the half maximal inhibitory concentration (IC50) values are determined by a MTT assay.

[2] = tested on: HCC2935 lung adenocarcinoma cell line; test: MTT assay, growth inhibition of HCC2935 cell line; format: cell-based; details: 72 h at 10 ng/μl only
Protocol: as §1

arginine deiminase [ADI, reference compound]
growth inhibition effect (cell proliferation) [1]: does not inhibit H1975 lung adenocarcinoma cell line proliferation | growth inhibition effect (cell proliferation / toxicity) [2]: does not inhibit HCC2935 lung adenocarcinoma cell line proliferation
